Measurements reported in patent US20260308158A1, “TARGETING RNAS ASSOCIATED WITH TAUOPATHIES WITH SMALL MOLECULES” (University of Florida Research Foundation, Incorporated, priority 2023, published 2026).

Assays:
[1] = test system: MAPT exon 10 splicing in htau mice; test: MAPT exon 10 splicing in brain of htau mice (RT-qPCR); assay type: in vivo, human MAPT in htau mouse; details: 100 mg/kg p.o. q.o.d., 20 days
Description: RNA Isolation and Real-Time Quantitative PCR (RT-qPCR). HeLa cells were treated as described in the Luciferase Reporter assay to Study Exon 10 Alternative Splicing. LAN5 cells were seeded in 12-well plates at 0.2×10^6 cells per well, treated with compound or ASO, and incubated for 48 h. Compound stocks prepared in DMSO and ASO stocks prepared in water were diluted in growth medium and added to cells. Total RNA was extracted from cells and analyzed via RT-qPCR to determine levels of 3R and 4R tau mRNA. In brief, the cells were washed with 1×DPBS and then lysed in the well using 300 μL of Lysis Buffer provided in a Quick-RNA MiniPrep kit (Zymo Research), which was used to extract total RNA per the manufacturer's protocol including the on-column DNase I digestion. The concentration of total RNA was measured by NanoDrop 2000 (Thermo Fisher Scientific). Only samples with OD260/OD280>1.8 were carried forward for analysis. Reverse transcription (RT) was carried out on 200 ng of total RNA using a qScript cDNA synthesis kit (QuantaBio) in a total volume of 10 μL according to the manufacturer's protocol. An Applied Biosystems QS5 384-well PCR system was used to complete qPCR reactions with Power SYBR Green Master Mix (Life Technologies), 600 nM each primer (Table S3), 20 ng of cDNA (1 μL of the RT reaction), in a total volume of 33 μL. Technical triplicates (10 μL each) were aliquoted into 384-well qPCR plates (Applied biosystems, 4483285). Subsequent qPCR analysis was performed using an Applied Biosystems QS5 384-well PCR system (software v.1.3.0). 4R/3R ratio were analyzed using ΔΔCt method using Equation 2: […]
hTau Mice Studies. htau mice and WT mice (C57BL/6J) were purchased from Jackson Laboratories. htau mice were maintained in-house through breeding between htau+/− mice. Genotype was confirmed by PCR amplification as previously described.^18 Only homozygous mice were used in in vivo studies. Mice were randomly assigned to a treatment group, which were age- and gender-matched (n=X). […] During the treatment period, nesting activity was assessed, as describe in Nesting Activity below. […]

[2] = test system: 4R and 3R tau protein in LAN5 cells; test: 4R/3R tau protein by Western blotting in LAN5 cells; assay type: cell-based; details: LA-N-5; 2 at 1.5 μM, LAN5, 48 h; read-out: reduction of 4R/3R protein ratio
Description: Western Blotting. LAN5 cells were seeded in 6-well plates at 0.6×10^6 cells per well, treated with compound and incubated for 48 h. After removing the growth medium, the cells were washed with 1×DPBS and harvested by trypsinization. Total protein was extracted with Mammalian Protein Extraction Reagent (M-PER, Thermo Scientific) per the manufacturer's protocol. Protein concentrations were determined using a Pierce Micro BCA Protein Assay Kit per the manufacturer's recommended protocol. Approximately 20 μg of total protein from each biological sample was separated on a sodium dodecyl sulfate (SDS)-polyacrylamide gel (5% (w/v) polyacrylamide stacking layer; 12% (w/v) polyacrylamide separating layer), followed by transferring to a polyvinylidene fluoride (PVDF; 0.45 μm) membrane. […] After three more washes with 1×TBST for 15 min each, 4R, 3R tau protein, or B-actin were detected using SuperSignal West Pico Chemiluminescent Substrate (Pierce Biotechnology).
After imaging, the membrane was stripped with 1× Stripping Buffer (200 mM glycine with 0.1% SDS, pH 2.2) for 0.5 h at room temperature, and β-actin levels were detected as described above, except using a β-actin primary antibody (Cell Signaling Technology, 4970S; 1:5000 dilution). ImageJ software was used for the quantification of the protein bands.

[3] = test system: DDPAC MAPT exon 10 mini-gene luciferase reporter; test: Luciferase reporter assay of exon 10 splicing, DDPAC mini-gene in HeLa cells; assay type: cell-based
Description: Luciferase-reporter Assay to Study Exon 10 Alternative Splicing. The exon 10 mini-genes, both WT and DDPAC and mutant thereof, fused to firefly luciferase, have been previously described.^18 HeLa cells were seeded in 60 mm diameter dishes and incubated for 12-16 h to 70% confluency. They were then transfected with WT, WT+I17T, DDPAC, or DDPAC+I17T luciferase reporter minigenes using JetPrime (Polyplus Transfection) per the manufacturer's recommended protocol and incubated for 4 h. After transfection, the cells were collected by trypsinization and re-seeded in 96-well plates at 0.2×10^5 cells per well, followed by treatment of compounds after 4 h. Compound stocks prepared in DMSO were diluted in growth medium and added to cells with final DMSO concentration at 0.1% (v/v). After a 48 h treatment period, the cells were washed with 1× DPBS. Each well was added with a mixture of 10 μL WST-1 reagent and 90 μL of growth medium. After incubation at 37° C. for 45 min, absorbance was measured at 450 and 690 nm. A690 as background was subtracted from A450 to obtain A450′. After removal of WST-1/DMEM from wells, the cells were washed again with 1×DPBS and treated with 100 μL of One-Glo EX reagent (Promega, E8110) per well. The plate was incubated at room temperature for 20 min and the luminescence was measured with a […] plate reader (1000 ms integration time). The resulted luminescence was normalized to A450′.

IC50 ([3]; Homo sapiens, HeLa, DDPAC mini-gene, 48 h, read-out: IC50, inhibition of luciferase activity (exon 10 inclusion)): 600 ± 300 nM
Compound: COc1cc(N)ncc1CCCN(C)CCCn1cnc2c3ccccc3n(C)c2c1=O [Compound 2, 3-(3-((3-(6-amino-4-methoxypyridin-3-yl)propyl)(methyl)amino)propyl)-5-methyl-3,5-dihydro-4H-pyrimido[5,4-b]indol-4-one]
total human MAPT transcript levels ([1]; htau mice): without alteration of total human MAPT transcript levels
reduction of 4R/3R ratio ([1]; htau mice brain): 38±5%
reduction of PSI10 ([1]; htau mice brain): 12±2%
inhibition at 1.5 µM [2]: 54 ± 9%
improvement in cellular luciferase reporter assay compared to 1 ([3]; 2 vs 1): at least 10 fold
exclusion of exon 10 among eight conjugates (reduction of luciferase activity) ([3]; DDPAC mini-gene, HeLa): excluded exon 10 to the greatest extent
